These results are taken from US10004732B2 (Novartis AG, priority 2014, dated 2018).

pIC50: −log10 of the molar value. Some results are limits rather than exact numbers.

For data set [1], the target named is T1, PI 3-kinase delta (Homo sapiens, UniProt O00329). Briefly: TR-FRET Adapta assay, assay F. Particulars: read-out: Assay F PI3Kδ IC50. (Time-resolved FRET reads energy transfer from a long-lived donor to a nearby acceptor.)
For data set [2], the target named is T2, PI 3-kinase alpha (Homo sapiens, UniProt P42336). Briefly: Cellular assay H1, p-Akt (S473) in Rat-1 cells, Surefire format. The format is cell-based. To be noted: non-asterisked data: version H1 (Surefire format), Rat-1 cells; read-out: Assay H PI3Kα IC50.
Data set [3] deals with T2, PI 3-kinase alpha. Briefly: Kinase Glo Luminescent Kinase Assay (Kglo), assay A. Particulars: read-out: Assay A PI3Kα IC50. In kind it is biochemical.
Data set [4] addresses T3, PI 3-kinase gamma (Homo sapiens, UniProt P48736). Briefly: Cellular U937 AKT assay K1 (MSD). Particulars: U937 cells, K1 format; read-out: Assay K1 PI3Kγ IC50. In kind it is cell-based.
Data set [5] addresses T1, PI 3-kinase delta. Briefly: Cellular assay J1, p-Akt (S473) in Rat-1 cells, Surefire format. The format is cell-based. To be noted: non-asterisked data: version J1 (Surefire format), Rat-1 cells; read-out: Assay J PI3Kδ IC50.
The nature of data set [6]: Microsomal clearance assay (M). Particulars: intrinsic clearance in rat liver microsomes.
Protocol: The experiments were performed in 96-well glass plates at 37° C. on an automated Tecan EVO platform. Test compounds at a concentration of 10 mM in pure DMSO were diluted 1:1000 in water to 10 μM. […] Reactions were initiated by the addition of 150 μL of a cofactor solution containing 2 mM NADPH.
For data set [7], the system named is IL-8-induced neutrophil shape change in human whole blood. Briefly: Whole blood neutrophil shape change assay (L). To be noted: Homo sapiens, Neutrophil, IL-8, human whole blood, read-out: Assay L WBSC IC50. In kind it is cell-based.
In data set [8] the target is T4, PI 3-kinase beta (Homo sapiens, UniProt P42338). Briefly: Cellular assay I1, p-Akt (S473) in Rat-1 cells, Surefire format. Particulars: non-asterisked data: version I1 (Surefire format), Rat-1 cells; read-out: Assay I PI3Kβ IC50. In kind it is cell-based.
Target sequence in this assay (P42338 whole entry): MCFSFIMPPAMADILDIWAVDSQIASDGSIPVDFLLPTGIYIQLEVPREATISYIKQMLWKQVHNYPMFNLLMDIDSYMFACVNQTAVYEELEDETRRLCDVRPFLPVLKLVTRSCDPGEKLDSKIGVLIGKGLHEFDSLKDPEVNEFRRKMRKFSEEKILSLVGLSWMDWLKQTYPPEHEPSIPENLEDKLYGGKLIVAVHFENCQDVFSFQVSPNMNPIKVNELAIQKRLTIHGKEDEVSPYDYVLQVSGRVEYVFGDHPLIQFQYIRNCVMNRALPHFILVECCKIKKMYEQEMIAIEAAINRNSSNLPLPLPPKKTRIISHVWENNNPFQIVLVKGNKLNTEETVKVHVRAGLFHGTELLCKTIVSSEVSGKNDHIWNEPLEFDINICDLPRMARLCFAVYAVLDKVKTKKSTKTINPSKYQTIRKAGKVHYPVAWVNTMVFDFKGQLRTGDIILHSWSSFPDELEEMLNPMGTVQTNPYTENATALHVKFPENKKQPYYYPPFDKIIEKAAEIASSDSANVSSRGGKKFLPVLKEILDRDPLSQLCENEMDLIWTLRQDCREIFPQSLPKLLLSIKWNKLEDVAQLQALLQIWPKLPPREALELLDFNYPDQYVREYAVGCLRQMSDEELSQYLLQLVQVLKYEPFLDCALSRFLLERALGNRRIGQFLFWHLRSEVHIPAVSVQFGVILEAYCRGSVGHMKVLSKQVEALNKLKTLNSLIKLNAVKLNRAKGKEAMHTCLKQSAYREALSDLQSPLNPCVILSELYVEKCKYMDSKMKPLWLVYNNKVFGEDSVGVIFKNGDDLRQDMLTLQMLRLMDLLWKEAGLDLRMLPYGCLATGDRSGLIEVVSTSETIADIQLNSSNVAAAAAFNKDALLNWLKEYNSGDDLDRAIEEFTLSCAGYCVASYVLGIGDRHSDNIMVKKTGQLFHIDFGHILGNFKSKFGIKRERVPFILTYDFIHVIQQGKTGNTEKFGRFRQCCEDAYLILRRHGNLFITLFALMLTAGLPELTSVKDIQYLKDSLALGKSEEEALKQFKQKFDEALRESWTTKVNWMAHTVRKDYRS
Target sequence in this assay (Q63787 whole entry partner): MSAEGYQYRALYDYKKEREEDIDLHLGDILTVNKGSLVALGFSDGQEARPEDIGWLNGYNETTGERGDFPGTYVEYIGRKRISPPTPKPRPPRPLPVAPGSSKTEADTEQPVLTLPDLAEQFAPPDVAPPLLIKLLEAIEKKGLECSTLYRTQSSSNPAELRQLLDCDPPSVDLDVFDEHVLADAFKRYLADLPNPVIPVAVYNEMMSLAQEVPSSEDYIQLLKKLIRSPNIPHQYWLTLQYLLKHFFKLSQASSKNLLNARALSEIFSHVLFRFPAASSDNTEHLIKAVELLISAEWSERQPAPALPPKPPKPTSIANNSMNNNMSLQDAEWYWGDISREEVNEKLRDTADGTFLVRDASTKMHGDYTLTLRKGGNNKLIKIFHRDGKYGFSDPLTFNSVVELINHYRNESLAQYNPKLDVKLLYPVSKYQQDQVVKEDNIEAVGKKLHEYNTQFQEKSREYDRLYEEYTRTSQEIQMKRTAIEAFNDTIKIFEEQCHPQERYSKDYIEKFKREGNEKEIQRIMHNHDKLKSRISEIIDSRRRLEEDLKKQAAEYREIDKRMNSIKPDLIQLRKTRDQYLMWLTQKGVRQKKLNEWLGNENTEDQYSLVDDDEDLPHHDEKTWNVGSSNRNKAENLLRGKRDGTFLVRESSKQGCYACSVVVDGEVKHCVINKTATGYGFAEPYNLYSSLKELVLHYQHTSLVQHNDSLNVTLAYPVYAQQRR
The next data set has as its target PI 4-kinase beta (Homo sapiens, UniProt Q9UBF8). Briefly: Kinase Glo Luminescent Kinase Assay (Kglo), assay D. The format is biochemical. To be noted: read-out: Assay D PI4Kβ IC50. Background: Kinase-Glo reads ATP consumption through a luciferase reaction.
Data set [9] has as its target T3, PI 3-kinase gamma. Briefly: TR-FRET Adapta assay, assay E. In kind it is biochemical. To be noted: read-out: Assay E PI3Kγ IC50.
The target in the next data set is Vps34 (Homo sapiens, UniProt Q8NEB9). Briefly: Kinase Glo Luminescent Kinase Assay (Kglo), assay C. In kind it is biochemical. Particulars: read-out: Assay C VPS34 IC50.
Chain of Vps34 (Q8NEB9 whole entry, species assumed): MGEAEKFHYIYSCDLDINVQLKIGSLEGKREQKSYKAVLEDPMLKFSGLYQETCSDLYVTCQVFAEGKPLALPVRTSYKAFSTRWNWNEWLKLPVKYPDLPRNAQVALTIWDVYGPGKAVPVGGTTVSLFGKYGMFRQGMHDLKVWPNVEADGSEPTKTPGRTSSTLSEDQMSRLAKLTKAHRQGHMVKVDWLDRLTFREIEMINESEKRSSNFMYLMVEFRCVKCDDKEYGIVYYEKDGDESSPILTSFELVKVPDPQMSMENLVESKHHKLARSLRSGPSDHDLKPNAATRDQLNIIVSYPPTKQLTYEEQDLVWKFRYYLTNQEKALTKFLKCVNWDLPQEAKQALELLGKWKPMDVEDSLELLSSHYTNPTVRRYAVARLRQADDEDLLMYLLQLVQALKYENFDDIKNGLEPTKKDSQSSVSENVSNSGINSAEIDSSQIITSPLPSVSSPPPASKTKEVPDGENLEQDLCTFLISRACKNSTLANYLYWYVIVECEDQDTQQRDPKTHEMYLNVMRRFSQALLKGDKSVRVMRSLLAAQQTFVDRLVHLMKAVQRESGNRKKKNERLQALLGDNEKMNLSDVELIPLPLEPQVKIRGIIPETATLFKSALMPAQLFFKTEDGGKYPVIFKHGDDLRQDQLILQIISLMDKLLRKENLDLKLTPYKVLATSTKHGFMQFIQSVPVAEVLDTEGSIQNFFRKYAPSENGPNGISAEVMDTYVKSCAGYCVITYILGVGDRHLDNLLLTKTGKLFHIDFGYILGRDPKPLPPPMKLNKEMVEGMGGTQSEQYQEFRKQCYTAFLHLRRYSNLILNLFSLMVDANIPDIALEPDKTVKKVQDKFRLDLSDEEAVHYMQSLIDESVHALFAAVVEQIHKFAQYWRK
The target in another data set is mTOR (Homo sapiens, UniProt P42345). Briefly: Lanthascreen kinase binding assay, assay G. Particulars: read-out: Assay G mTOR IC50.
Data set [10] concerns the target T4, PI 3-kinase beta. Briefly: Kinase Glo Luminescent Kinase Assay (Kglo), assay B. The format is biochemical. Particulars: read-out: Assay B PI3Kβ IC50.
Target sequence in this assay (P42338 whole entry): as the sequence (P42338 whole entry) above
Target sequence in this assay (P27986 461-568 partner): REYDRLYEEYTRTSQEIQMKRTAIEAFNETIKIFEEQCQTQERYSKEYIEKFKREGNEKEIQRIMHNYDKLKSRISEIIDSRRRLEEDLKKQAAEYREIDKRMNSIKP
Protocol: Kinase Glo Luminescent Kinase Assay (Kglo) for Pb 3-Kinase Alpha (A), Pb 3-Kinase Beta (B), Vps34 (C), Pb 4-Kinase Beta (D)
The Kinase Glo Luminescent Kinase Assay (Promega, Madison/Wis., USA) is a homogeneous HTS method of measuring kinase activity by quantifying the amount of ATP remaining in solution following a kinase reaction.
L-α-phosphatidylinositol (PI), provided as 10 mg/ml solution in methanol, was transferred into a glass tube and dried under a nitrogen beam. It was then resuspended in 3% OctylGlucoside (1-0-n-octyl-beta-D-glucopyranoside) by vortexing and stored at 4° C. 5 μL of a mix of PI/OctylGlucoside with the PI 3-kinase alpha and PI 3-kinase beta subtypes, or Vps34 or PI 4-kinase beta were added. Kinase reactions were started by the addition of 5 μl of an ATP-mix containing in a final volume 10 μL 10 mM TRIS-HCl pH 7.5, 3 mM MgCl2, 50 mM NaCl, 0.05% CHAPS, 1 mM DTT and 1 μM ATP at room temperature.
All fits were performed with the program XLfit4 (ID Business Solutions, Guildford, UK).

T3 sequence (P48736 whole entry): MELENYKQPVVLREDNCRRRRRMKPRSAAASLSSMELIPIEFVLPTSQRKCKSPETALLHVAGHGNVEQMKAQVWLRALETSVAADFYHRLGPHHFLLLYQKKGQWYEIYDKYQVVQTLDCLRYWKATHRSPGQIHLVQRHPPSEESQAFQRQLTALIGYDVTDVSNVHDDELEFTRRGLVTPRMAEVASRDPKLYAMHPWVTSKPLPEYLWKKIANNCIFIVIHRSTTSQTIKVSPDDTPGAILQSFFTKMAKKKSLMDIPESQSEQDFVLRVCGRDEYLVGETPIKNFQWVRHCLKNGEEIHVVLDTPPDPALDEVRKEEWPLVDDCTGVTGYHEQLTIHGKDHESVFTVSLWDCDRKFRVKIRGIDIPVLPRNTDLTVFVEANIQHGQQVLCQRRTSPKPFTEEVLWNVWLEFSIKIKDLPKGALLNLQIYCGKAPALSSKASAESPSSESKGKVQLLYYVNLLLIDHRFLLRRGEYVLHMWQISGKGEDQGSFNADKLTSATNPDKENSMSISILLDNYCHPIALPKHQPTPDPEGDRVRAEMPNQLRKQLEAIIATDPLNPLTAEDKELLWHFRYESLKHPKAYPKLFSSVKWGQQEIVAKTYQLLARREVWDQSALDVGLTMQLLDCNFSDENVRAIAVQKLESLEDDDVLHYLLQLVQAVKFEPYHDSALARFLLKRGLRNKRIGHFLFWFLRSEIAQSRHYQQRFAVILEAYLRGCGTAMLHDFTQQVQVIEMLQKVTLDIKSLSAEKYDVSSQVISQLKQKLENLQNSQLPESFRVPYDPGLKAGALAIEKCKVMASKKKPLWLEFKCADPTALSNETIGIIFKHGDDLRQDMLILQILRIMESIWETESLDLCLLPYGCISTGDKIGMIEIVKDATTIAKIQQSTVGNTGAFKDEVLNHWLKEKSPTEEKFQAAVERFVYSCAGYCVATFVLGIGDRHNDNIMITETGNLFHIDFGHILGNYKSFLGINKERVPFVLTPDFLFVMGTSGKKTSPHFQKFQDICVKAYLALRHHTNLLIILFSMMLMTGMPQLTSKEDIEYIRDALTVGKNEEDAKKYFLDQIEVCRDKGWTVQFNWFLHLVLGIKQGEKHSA
Chain of PI 4-kinase beta (Q9UBF8 whole entry): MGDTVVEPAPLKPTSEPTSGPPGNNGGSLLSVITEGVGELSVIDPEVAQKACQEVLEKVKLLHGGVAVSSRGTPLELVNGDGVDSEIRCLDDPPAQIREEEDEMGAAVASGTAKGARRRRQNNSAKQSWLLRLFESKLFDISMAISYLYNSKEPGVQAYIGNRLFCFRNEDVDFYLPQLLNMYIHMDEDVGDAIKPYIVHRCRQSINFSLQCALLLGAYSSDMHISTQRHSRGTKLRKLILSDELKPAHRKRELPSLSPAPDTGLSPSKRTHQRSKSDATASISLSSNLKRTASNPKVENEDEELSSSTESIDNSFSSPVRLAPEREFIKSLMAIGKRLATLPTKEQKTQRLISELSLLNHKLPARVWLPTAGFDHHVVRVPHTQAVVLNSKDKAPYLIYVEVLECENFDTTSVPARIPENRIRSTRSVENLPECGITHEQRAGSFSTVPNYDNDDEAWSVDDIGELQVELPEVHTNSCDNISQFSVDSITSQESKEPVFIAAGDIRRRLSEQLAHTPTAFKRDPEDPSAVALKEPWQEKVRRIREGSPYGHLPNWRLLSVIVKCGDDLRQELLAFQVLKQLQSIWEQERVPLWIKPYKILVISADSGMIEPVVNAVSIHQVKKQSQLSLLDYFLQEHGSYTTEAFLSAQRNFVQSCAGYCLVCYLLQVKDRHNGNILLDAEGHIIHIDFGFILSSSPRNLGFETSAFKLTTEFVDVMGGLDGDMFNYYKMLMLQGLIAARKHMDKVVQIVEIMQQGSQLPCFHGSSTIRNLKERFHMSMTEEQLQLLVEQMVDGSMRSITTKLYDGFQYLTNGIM
Protocol for mTOR: Lanthascreen™ Kinase Binding Assay for mTOR (G)
Binding of an inhibitor to the kinase competes for binding with the tracer, resulting in a loss of FRET.
50 nL of compound dilutions were dispensed onto white 384-well small volume polystyrene plate.

By pIC50 is commonly meant the IC50 on a negative log10 scale, so that one unit is a factor of ten. As to `Cc1nnc(-c2nc(-c3cc(S(=O)(=O)N[C@H]4CC[C@H](O)CC4)ccc3C)cnc2N)o1` [Example 1, Trans-3-[5-Amino-6-(5-methyl-[1,3,4]oxadiazol-2-yl)-pyrazin-2-yl]-N-(4-hydroxy-cyclohexyl)-4-methyl-benzenesulfonamide], the negative-log IC50 (pIC50) on PI 3-kinase delta [1] is 6.00; on PI 3-kinase alpha [2], 5.03; at PI 3-kinase alpha [3] it was 5.89; on PI 3-kinase gamma [4], 6.30; on PI 3-kinase delta [5], 5.13; in data set [7] it was 6.10. The pIC50 on PI 3-kinase beta [8] was less than 5.00; at PI 4-kinase beta it was less than 5.04; at PI 3-kinase gamma [9], 7.82; at Vps34, less than 5.04. Besides, the “Assay M RLM CI(int)” value in data set [6] is less than 3.4 µL/min/mg.

Take `Cc1noc(-c2nc(-c3cc(S(=O)(=O)N[C@H]4CC[C@H](O)CC4)ccc3C)cnc2N)n1` [Example 2, Trans-3-[5-Amino-6-(3-methyl-[1,2,4]oxadiazol-5-yl)-pyrazin-2-yl]-N-(4-hydroxy-cyclohexyl)-4-methyl-benzenesulfonamide]: the pIC50 on PI 3-kinase delta [1] is 6.41; at PI 3-kinase alpha [2], 5.50; on PI 3-kinase alpha [3] it was 6.09; on PI 3-kinase gamma [4], 6.83; at PI 3-kinase delta [5], 5.97; in data set [7], 6.16. Besides, the pIC50 is less than 5.00 at PI 3-kinase beta [8]; less than 5.04 on PI 4-kinase beta; 8.52 on PI 3-kinase gamma [9]; less than 5.04 on Vps34; less than 5.04 at mTOR. The “Assay M RLM CI(int)” value in [6] was found to be 25 µL/min/mg.

On to `Cc1cc(-c2nc(-c3cc(S(=O)(=O)N[C@H]4CC[C@H](O)CC4)ccc3C)cnc2N)on1` [Example 4, Trans-3-[5-Amino-6-(3-methyl-isoxazol-5-yl)-pyrazin-2-yl]-N-(4-hydroxy-cyclohexyl)-4-methyl-benzenesulfonamide], for which the pIC50 on PI 3-kinase delta [1] is 6.52; at PI 3-kinase alpha [2] it was 5.59; on PI 3-kinase alpha [3], 6.29; on PI 3-kinase gamma [4] it was 7.42; on PI 3-kinase delta [5], 6.04; at PI 3-kinase beta [10], 5.49. Besides, the pIC50 in data set [7] is 6.17; at PI 3-kinase beta [8], 5.35; at PI 4-kinase beta it was 5.43; on PI 3-kinase gamma [9] it was 7.59; on Vps34, less than 5.04; on mTOR it was 5.19. Also, the “Assay M RLM CI(int)” value in [6] was 27 µL/min/mg.

Turning to `Cc1ncc(-c2nc(-c3cc(S(=O)(=O)NCC(C)(C)CO)ccc3C)cnc2N)s1` [Example 8, 3-[5-Amino-6-(2-methyl-thiazol-5-yl)-pyrazin-2-yl]-N-(3-hydroxy-2,2-dimethyl-propyl)-4-methyl-benzenesulfonamide], the pIC50 is 7.70 on PI 3-kinase delta [1]; 6.12 at PI 3-kinase alpha [2]; 7.40 at PI 3-kinase alpha [3]; 7.68 at PI 3-kinase gamma [4]; 6.43 at PI 3-kinase delta [5]; 5.82 at PI 3-kinase beta [10]. The pIC50 in data set [7] was 6.77; at PI 3-kinase beta [8], 5.22; on PI 4-kinase beta it was 5.71; at PI 3-kinase gamma [9], greater than 8.52; on Vps34, 6.39; at mTOR, 6.57. In data set [6], the “Assay M RLM CI(int)” value was 50 µL/min/mg.

With `Cc1ccc(S(=O)(=O)N[C@H]2CC[C@H](O)CC2)cc1-c1cnc(N)c(-c2ccncc2)n1` [Example 11, Trans-3-(5-Amino-6-(pyridin-4-yl)pyrazin-2-yl)-N-(4-hydroxycyclohexyl)-4-methylbenzenesulfonamide], the pIC50 on PI 3-kinase delta [1] was 6.89; on PI 3-kinase alpha [2], 5.59; at PI 3-kinase alpha [3] it was 6.85; at PI 3-kinase gamma [4], 7.24; on PI 3-kinase delta [5], 5.45; at PI 3-kinase beta [10] it was 5.58. Further, the negative-log IC50 (pIC50) in data set [7] was 6.80; at PI 3-kinase beta [8] it was 5.16; at PI 4-kinase beta it was 5.45; at PI 3-kinase gamma [9], 8.00; on Vps34, less than 5.04; on mTOR, 5.23. For the same molecule, the “Assay M RLM CI(int)” value in data set [6] was found to be 78 µL/min/mg.

For `Cc1ccc(S(=O)(=O)N[C@H]2CC[C@H](O)CC2)cc1-c1cnc(N)c(-n2cncn2)n1` [Example 15, Trans-3-(5-Amino-6-(1H-1,2,4-triazol-1-yl)pyrazin-2-yl)-N-(4-hydroxycyclohexyl)-4-methylbenzenesulfonamide], the pIC50 was 6.82 on PI 3-kinase delta [1]; 5.71 at PI 3-kinase alpha [2]; 6.80 at PI 3-kinase alpha [3]; 7.21 at PI 3-kinase gamma [4]; 5.84 at PI 3-kinase delta [5]; 5.71 on PI 3-kinase beta [10]. In addition, the pIC50 in data set [7] is 6.78; on PI 3-kinase beta [8], 5.70; at PI 4-kinase beta, 5.25; on PI 3-kinase gamma [9] it was 7.74; on Vps34, less than 5.04; at mTOR it was less than 5.04. For the same molecule, the “Assay M RLM CI(int)” value in [6] worked out at 24 µL/min/mg.

On to `Cc1ccc(S(=O)(=O)NOC2CCOC2)cc1-c1cnc(N)c(-n2cncn2)n1` (stereo not drawn) [Example 112.5, 3-(5-Amino-6-(1H-1,2,4-triazol-1-yl)pyrazin-2-yl)-4-methyl-N-((tetrahydrofuran-3-yl)oxy)benzenesulfonamide], for which the pIC50 on PI 3-kinase delta [1] is 6.28; at PI 3-kinase alpha [2] it was 6.89; at PI 3-kinase alpha [3], 6.92; at PI 3-kinase gamma [4], 7.44; on PI 3-kinase delta [5], 6.08; at PI 3-kinase beta [10] it was 5.65. For the same molecule, the pIC50 in data set [7] is 6.01; on PI 3-kinase beta [8] it was less than 5.00; at PI 4-kinase beta, 5.52; on Vps34, less than 5.00; on mTOR, 5.74. In [6], the “Assay M RLM CI(int)” value was found to be 40 µL/min/mg.

As for `CCc1noc(-c2nc(-c3cc(S(=O)(=O)NCCC(C)(C)O)ccc3C)cnc2N)n1` [Example 136, 3-(5-Amino-6-(3-ethyl-1,2,4-oxadiazol-5-yl)pyrazin-2-yl)-N-(3-hydroxy-3-methylbutyl)-4-methylbenzenesulfonamide], the pIC50 was 6.89 on PI 3-kinase delta [1]; 6.00 at PI 3-kinase alpha [2]; 6.36 at PI 3-kinase alpha [3]; 6.91 at PI 3-kinase gamma [4]; 5.95 on PI 3-kinase delta [5]; less than 5.04 at PI 3-kinase beta [10]. Besides, the negative logarithm of the IC50 (pIC50) is 5.89 in data set [7]; less than 5.00 at PI 3-kinase beta [8]; less than 5.04 at PI 4-kinase beta; 7.92 on PI 3-kinase gamma [9]; less than 5.04 at Vps34; less than 5.04 on mTOR.

For the molecule `CCc1noc(-c2nc(-c3cc(S(=O)(=O)N[C@H]4CC[C@H](O)CC4)ccc3C)cnc2N)n1` [Example 139, Trans-3-[5-Amino-6-(3-ethyl-[1,2,4]oxadiazol-5-yl)-pyrazin-2-yl]-N-(4-hydroxy-cyclohexyl)-4-methyl-benzene sulfonamide], the negative-log IC50 (pIC50) is 6.80 on PI 3-kinase delta [1]; 5.97 on PI 3-kinase alpha [2]; 6.27 at PI 3-kinase alpha [3]; 6.99 on PI 3-kinase gamma [4]; 6.01 on PI 3-kinase delta [5]; 5.08 at PI 3-kinase beta [10]. Besides, the pIC50 in [7] is 6.25; at PI 3-kinase beta [8], 5.10; on PI 4-kinase beta it was less than 5.04; on PI 3-kinase gamma [9], 7.80; at Vps34, less than 5.04; on mTOR, 5.08.
